Test results reported in PMC5904222, “Synthesis and anticancer activity of multisubstituted purines and xanthines with one or two propynylthio and aminobutynylthio groups” (Medicinal Chemistry Research, 2018).
≈ marks a conversion by molar mass, not a printed value.

How the values were obtained:
[1] = tested on: SNB-19 (human glioblastoma); experiment: WST-1 proliferation assay, SNB-19; assay type: cell-based; conditions: SNB-19 cells, 72 h exposure; for IC50: Homo sapiens, SNB-19, 72 h, read-out: Antiproliferative activity IC50 SNB-19
Protocol: (§1) Compounds were evaluated for their anticancer activity using three cultured cell lines: SNB-19 (human glioblastoma, DSMZ - German Collection of Microorganisms and Cell Cultures, Braunschweig, Germany), C-32 (human amelanotic melanoma, ATCC-American Type Culture Collection, Manassas, VA, USA), MDA-MB-231 (human adenocarcinoma mammary gland, ATCC, Manassas, VA, USA), and HFF-1 (human fibroblast cell line, ATCC, Manassas, VA, USA). The cultured cells were kept at 37 °C and 5% CO2. The cells were seeded (1 × 10^4 cells/well/100 μL DMEM supplemented with 10% FCS and streptomycin and penicillin) using 96-well plates (Corning). The cells were counted in a hemocytometer (Burker’s chamber) using a phase contrast Olympus IX50 microscope equipped with Sony SSC-DC58 AP camera and Olympus DP10 digital camera.
(§2) The antiproliferative effect of the compounds obtained from both the cancer and the normal cells was determined using the Cell Proliferation Reagent WST-1 assay (Roche Diagnostics, Mannheim, Germany). This colorimetric assay is based on the viable cell’s ability to cause the bright red-colored stable tetrazolium salt (2-(4-iodophenyl)-3-(4-nitrophenyl)-5-(2,4-disulfophenyl)-2H-tetrazolium, monosodium salt) to cleave to the dark red soluble formazan by cellular enzymes. An expansion in the number of viable cells results in an increase in the overall activity of mitochondrial dehydrogenases in the sample. An increase in the amount of formazan dye formed correlates to the number of metabolically active cells in the culture. The formazan dye produced by metabolically active cells is quantified by a scanning ELISA reader that measures the absorbance of the dye solution at appropriate wavelengths. The examined cells were exposed to the tested compounds for 72 h at various concentrations between 0.1 and 100 μg/mL (prepared initially at a concentration of 1 mg/mL in DMSO). The control was performed in order to check that DMSO has no effect on the cells at the concentration used. The cells were incubated with WST-1 (10 μL) for 1 h and the absorbance of the samples was measured against a background control at 450 nm using a microplate reader with a reference wavelength at 600 nm. The results are expressed as the means of at least two independent experiments performed in triplicate. […] The IC50 values (a concentration of a compound that is required for 50% inhibition) were calculated from the dose–response relationship with respect to control.

[2] = tested on: C-32 (human amelanotic melanoma); experiment: WST-1 proliferation assay, C-32; assay type: cell-based; conditions: C-32 cells, 72 h exposure; for IC50: Homo sapiens, C32, 72 h, read-out: Antiproliferative activity IC50 C-32
Protocol: as §1, §2

[3] = tested on: MDA-MB-231 (human adenocarcinoma mammary gland); experiment: WST-1 proliferation assay, MDA-MB-231; assay type: cell-based; conditions: MDA-MB-231 cells, 72 h exposure; for IC50: Homo sapiens, MDA-MB-231, 72 h, read-out: Antiproliferative activity IC50 MDA-MB-231
Protocol: as §1, §2

[4] = tested on: HFF-1 (human fibroblast cell line); experiment: WST-1 proliferation assay, normal fibroblasts HFF-1; assay type: cell-based; conditions: for IC50: read-out: Antiproliferative activity IC50 HFF-1
Protocol: as §1
as §2, with “The control was performed in order to check that DMSO has no effect on the cells at the concentration used.” left out

[5] = normal human fibroblasts HFF-1, 72 h exposure, WST-1

Compound | Antiproliferative activity IC50 SNB-19 [1] | Antiproliferative activity IC50 C-32 [2] | Antiproliferative activity IC50 MDA-MB-231 [3] | IC50 [1] | IC50 [2] | IC50 [3] | melting point | Antiproliferative activity IC50 HFF-1 [4, 5] | IC50 [4, 5] | cytotoxicity on the normal human fibroblasts (HFF-1), in words [4]
N.N.[Cl][Pt][Cl] [Cisplatin, cisplatin, reference compound] | 1.46 µg/mL | 5.71 µg/mL | 11.85 µg/mL | – | – | – | – | 1.21 µg/mL | – | –
Cn1cnc2nc(Cl)nc(SCC#CCN3CCCCC3)c21 [Compound 2a, 2-Chloro-6-(4-N-piperidinylbut-2-ynylthio)-7-methylpurine] | – | – | – | 28.8 µg/mL (≈ 85.7 µM) | 21 µg/mL (≈ 62.6 µM) | 33.4 µg/mL (≈ 99.4 µM) | 122 to 124 °C | – | 35.4 µg/mL (≈ 105 µM) | –
Cn1cnc2nc(Cl)nc(SCC#CCN3CCOCC3)c21 [Compound 2b, 2-Chloro-6-(4-N-morpholinylbut-2-ynylthio)-7-methylpurine] | – | – | – | 35.4 µg/mL (≈ 105 µM) | 125 µg/mL (≈ 370 µM) | 66.3 µg/mL (≈ 196 µM) | 168 to 169 °C | – | 20.1 µg/mL (≈ 59.5 µM) | –
CCN(CC)CC#CCSc1nc(Cl)nc2ncn(C)c12 [Compound 2c, 2-Chloro-6-(4-diethylaminobut-2-ynylthio)-7-methylpurine] | – | – | – | 17.4 µg/mL (≈ 53.7 µM) | 11.9 µg/mL (≈ 36.7 µM) | 48.1 µg/mL (≈ 148 µM) | 117 to 118 °C | – | 8.65 µg/mL (≈ 26.7 µM) | –
C#CCSc1nc(SCC#C)c2c(ncn2C)n1 [Compound 4, 2,6-di(prop-2-ynylthio)-7-methylpurine] | – | – | – | 15 µg/mL (≈ 54.7 µM) | – | – | 162 to 164 °C | – | 10 µg/mL (≈ 36.4 µM) | relatively weak cytotoxicity
Cn1cnc2nc(SCC#CCN3CCCC3)nc(SCC#CCN3CCCC3)c21 [Compound 5a, 2,6-Di(4-N-pyrrolidinylbut-2-ynylthio)-7-methylpurine] | – | – | – | 19.4 µg/mL (≈ 44 µM) | 6.81 µg/mL (≈ 15.5 µM) | 19.9 µg/mL (≈ 45.3 µM) | 97 to 99 °C | – | 10 µg/mL (≈ 22.7 µM) | –
Cn1cnc2nc(SCC#CCN3CCCCC3)nc(SCC#CCN3CCCCC3)c21 [Compound 5b, 2,6-Di(4-N-piperidinylbut-2-ynylthio)-7-methylpurine] | – | – | – | 4.64 µg/mL (≈ 9.9 µM) | 6.39 µg/mL (≈ 13.6 µM) | 7.35 µg/mL (≈ 15.7 µM) | 130 to 132 °C | – | 3.98 µg/mL (≈ 8.49 µM) | –
Cn1cnc2nc(SCC#CCN3CCOCC3)nc(SCC#CCN3CCOCC3)c21 [Compound 5c, 2,6-Di(4-N-morpholinylbut-2-ynylthio)-7-methylpurine] | – | – | – | 21.5 µg/mL (≈ 45.6 µM) | 0.35 µg/mL (≈ 0.741 µM) | 50.8 µg/mL (≈ 107 µM) | 121 to 123 °C | – | 0.37 µg/mL (≈ 0.783 µM) | –
CCN(CC)CC#CCSc1nc(SCC#CCN(CC)CC)c2c(ncn2C)n1 [Compound 5d, 2,6-Di(4-diethylaminobut-2-ynylthio)-7-methylpurine] | – | – | – | 48.9 µg/mL (≈ 110 µM) | 23.9 µg/mL (≈ 53.7 µM) | 38.5 µg/mL (≈ 86.6 µM) | 77 to 79 °C | – | 5.95 µg/mL (≈ 13.4 µM) | –
C#CCSc1nc2c(c(=O)[nH]c(=O)n2C)n1C [Compound 9, 8-(prop-2-ynylthio)-3,7-dimethylxanthine] | 191.10 µg/mL | 103.46 µg/mL | 169.34 µg/mL | > 100 µg/mL | > 100 µg/mL | > 100 µg/mL | 252 to 253 °C | – | 154 µg/mL (≈ 614 µM) | –
C#CCSc1nc(Cl)nc2nc(SCC#C)n(C)c12 [Compound 14, 2-chloro-6,8-di(prop-2-ynylthio)-7-methylpurine] | – | – | – | – | 270 µg/mL (≈ 875 µM) | 10 µg/mL (≈ 32.4 µM) | 161 to 163 °C | – | 20.1 µg/mL (≈ 65.1 µM) | relatively weak cytotoxicity

The next lines start with results.

Antiproliferative activity IC50 SNB-19 [1] | Antiproliferative activity IC50 C-32 [2] | Antiproliferative activity IC50 MDA-MB-231 [3] | IC50 [1] | IC50 [2] | IC50 [3] | melting point | Compound | Antiproliferative activity IC50 HFF-1 [4, 5] | IC50 [4, 5] | cytotoxicity on the normal human fibroblasts (HFF-1), in words [4]
– | – | – | 177 µg/mL (≈ 530 µM) | 51.1 µg/mL (≈ 153 µM) | 472 µg/mL (≈ 1410 µM) | 195 to 197 °C | Cn1c(SCC#CCN2CCCC2)nc2c1c(=O)[nH]c(=O)n2C [Compound 10a, 8-(4-N-pyrrolidinylbut-2-ynylthio)-3,7-dimethylxanthine] | – | 34.3 µg/mL (≈ 103 µM) | –
– | – | – | 166 µg/mL (≈ 478 µM) | 355 µg/mL (≈ 1020 µM) | 364 µg/mL (≈ 1050 µM) | 223 to 225 °C | Cn1c(SCC#CCN2CCCCC2)nc2c1c(=O)[nH]c(=O)n2C [Compound 10b, 8-(4-N-piperidinylbut-2-ynylthio)-3,7-dimethylxanthine] | – | 30.4 µg/mL (≈ 87.5 µM) | –
1.69 µg/mL | – | – | < 1.7 µg/mL | 223 µg/mL (≈ 637 µM) | 6.54 µg/mL (≈ 18.7 µM) | 174 to 176 °C | Cn1c(SCC#CCN2CCOCC2)nc2c1c(=O)[nH]c(=O)n2C [Compound 10c, 8-(4-N-morpholinylbut-2-ynylthio)-3,7-dimethylxanthine] | – | 5.87 µg/mL (≈ 16.8 µM) | –
1.48 µg/mL | – | – | < 1.7 µg/mL | 26.4 µg/mL (≈ 78.6 µM) | 68.1 µg/mL (≈ 203 µM) | 186 to 188 °C | CCN(CC)CC#CCSc1nc2c(c(=O)[nH]c(=O)n2C)n1C [Compound 10d, 8-(4-diethylaminobut-2-ynylthio)-3,7-dimethylxanthine] | – | 3.68 µg/mL (≈ 11 µM) | –
0.52 µg/mL | 4.55 µg/mL | 3.83 µg/mL | < 1 µg/mL | 3.8 to 4.5 µg/mL (≈ 8 to 9.47 µM) | 3.8 to 4.5 µg/mL (≈ 8 to 9.47 µM) | 133 to 135 °C | Cn1c(SCC#CCN2CCCC2)nc2nc(Cl)nc(SCC#CCN3CCCC3)c21 [Compound 15a, 2-Chloro-6,8-di(4-N-pyrrolidinylbut-2-ynylthio)-7-methylpurine] | – | 3.63 µg/mL (≈ 7.64 µM) | –
– | – | – | 11.6 µg/mL (≈ 23.1 µM) | 19.1 µg/mL (≈ 37.9 µM) | 38.1 µg/mL (≈ 75.7 µM) | 108 to 110 °C | Cn1c(SCC#CCN2CCCCC2)nc2nc(Cl)nc(SCC#CCN3CCCCC3)c21 [Compound 15b, 2-Chloro-6,8-di(4-N-piperidinylbut-2-ynylthio)-7-methylpurine] | – | 5.5 µg/mL (≈ 10.9 µM) | –
– | – | – | 26.1 µg/mL (≈ 51.5 µM) | – | 74 µg/mL (≈ 146 µM) | 112 to 113 °C | Cn1c(SCC#CCN2CCOCC2)nc2nc(Cl)nc(SCC#CCN3CCOCC3)c21 [Compound 15c, 2-Chloro-6,8-di(4-N-morpholinylbut-2-ynylthio)-7-methylpurine] | – | 36.4 µg/mL (≈ 71.7 µM) | relatively weak cytotoxicity
2.91 µg/mL | 5.33 µg/mL | – | 2.9 to 5.3 µg/mL (≈ 6.05 to 11.1 µM) | 2.9 to 5.3 µg/mL (≈ 6.05 to 11.1 µM) | 10 µg/mL (≈ 20.9 µM) | 88 to 90 °C | CCN(CC)CC#CCSc1nc(Cl)nc2nc(SCC#CCN(CC)CC)n(C)c12 [Compound 15d, 2-Chloro-6,8-di(diethylaminobut-2-ynylthio)-7-methylpurine] | – | 1 µg/mL (≈ 2.09 µM) | cytotoxic
